# Literature values in patent publication US7476743B2, “Compounds, compositions, and methods” (Cytokinetics, Inc., priority 2002, dated 2009).
# System: A549 cells
# Conditions: data provided by National Cancer Institute
row,Structure (SMILES),GI50 [nM]
1,O=c1[nH]cc(F)c(=O)[nH]1 [5-fluorouracil],1000
2,COc1cccc2c1C(=O)c1c(O)c3c(c(O)c1C2=O)C[C@@](O)(C(=O)CO)C[C@@H]3O[C@H]1C[C@H](N)[C@H](O)[C@H](C)O1 [doxorubicin],63
3,NC(=O)NO [hydroxyurea],500000
4,CC(=O)O[C@H]1C(=O)[C@@]2(C)[C@H]([C@H](OC(=O)c3ccccc3)[C@]3(O)C[C@H](OC(=O)[C@H](O)[C@@H](NC(=O)c4ccccc4)c4ccccc4)C(C)=C1C3(C)C)[C@]1(OC(C)=O)CO[C@@H]1C[C@@H]2O [paclitaxel],4
